Data as given in patent publication US20230192717A1, “COMPOSITIONS AND METHODS OF MODULATING SHORT-CHAIN DEHYDROGENASE ACTIVITY” (RODEO THERAPEUTICS CORPORATION, priority 2020, published 2023).
≈ marks a conversion by molar mass, not a printed value.

What was measured:
[1] = molecular target: T1, recombinant 15-PGDH (Homo sapiens, UniProt P15428); experiment: inhibition of enzymatic activity of recombinant 15-PGDH in vitro; format: biochemical; details: recombinant human 15-PGDH
T1 sequence (P15428 1-266): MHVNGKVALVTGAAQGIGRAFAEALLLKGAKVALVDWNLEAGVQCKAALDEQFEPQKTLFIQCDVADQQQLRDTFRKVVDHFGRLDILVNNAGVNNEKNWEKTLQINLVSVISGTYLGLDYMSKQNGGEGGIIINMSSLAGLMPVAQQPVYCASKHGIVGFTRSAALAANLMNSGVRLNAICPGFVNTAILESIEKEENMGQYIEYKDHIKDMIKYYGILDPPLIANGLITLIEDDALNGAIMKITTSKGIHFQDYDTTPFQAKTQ
From the text: The Recombinant 15-PGDH is human unless otherwise specified.

[2] = kinetic aqueous solubility in pH 7 citrate buffer; format: physicochemical; details: kinetic from dmso stock, pH 7 citrate buffer solution, read-out: Kinetic Aq solubility (μM pH 7)
[3] = molecular target: hERG channels (Homo sapiens, UniProt Q12809); experiment: hERG test on manual patch-clamp system; format: cell-based; details: CHO-K1 cells expressing hERG, whole-cell patch clamp, room temperature
Chain of hERG channels (Q12809 whole entry): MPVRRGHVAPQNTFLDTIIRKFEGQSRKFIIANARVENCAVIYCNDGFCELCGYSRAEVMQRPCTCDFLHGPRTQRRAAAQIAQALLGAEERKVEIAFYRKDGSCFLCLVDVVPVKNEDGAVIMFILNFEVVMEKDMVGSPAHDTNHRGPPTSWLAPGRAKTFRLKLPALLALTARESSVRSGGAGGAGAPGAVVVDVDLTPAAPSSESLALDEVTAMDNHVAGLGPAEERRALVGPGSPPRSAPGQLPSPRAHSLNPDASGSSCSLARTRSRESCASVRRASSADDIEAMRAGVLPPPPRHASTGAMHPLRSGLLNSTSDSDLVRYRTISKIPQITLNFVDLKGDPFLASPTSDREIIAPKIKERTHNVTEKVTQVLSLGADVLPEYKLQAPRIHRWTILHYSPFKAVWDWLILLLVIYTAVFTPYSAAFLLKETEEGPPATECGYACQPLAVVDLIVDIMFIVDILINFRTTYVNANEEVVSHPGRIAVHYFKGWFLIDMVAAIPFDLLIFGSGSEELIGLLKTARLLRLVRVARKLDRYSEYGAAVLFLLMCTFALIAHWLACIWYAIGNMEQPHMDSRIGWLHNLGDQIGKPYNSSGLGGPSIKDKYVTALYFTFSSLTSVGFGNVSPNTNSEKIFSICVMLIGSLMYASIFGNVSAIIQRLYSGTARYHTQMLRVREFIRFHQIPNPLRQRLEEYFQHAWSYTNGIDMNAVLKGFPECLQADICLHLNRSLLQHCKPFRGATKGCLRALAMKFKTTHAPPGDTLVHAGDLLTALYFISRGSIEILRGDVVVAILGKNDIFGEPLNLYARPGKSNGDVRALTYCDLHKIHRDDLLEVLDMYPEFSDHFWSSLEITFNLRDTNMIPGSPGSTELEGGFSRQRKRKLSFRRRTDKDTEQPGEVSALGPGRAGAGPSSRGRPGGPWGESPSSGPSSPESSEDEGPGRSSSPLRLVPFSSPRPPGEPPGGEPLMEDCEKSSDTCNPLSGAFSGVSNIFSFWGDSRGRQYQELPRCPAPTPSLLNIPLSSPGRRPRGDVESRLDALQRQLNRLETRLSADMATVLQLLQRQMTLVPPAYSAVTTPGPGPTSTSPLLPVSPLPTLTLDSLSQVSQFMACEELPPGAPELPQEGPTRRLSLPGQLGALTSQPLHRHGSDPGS
Procedure: Visual check for precipitation was conducted before testing.

[4] = in vitro microsome metabolic stability, human (HLM); format: in vitro ADME; details: pooled human liver microsomes, pH 7.4; human liver microsomes 0.5 mg/mL, 1 μM compound, NADPH, 37° C.; read-out: HLM (T1/2, min)
Procedure: (§1) Human microsome stability (HLM), mouse microsome stability (MLM), hERG IC50, Caco-2 permeability, CYP inhibition, and pharmacokinetic (PK) properties were determined on selected compounds of the disclosure.
(§2) Pooled liver microsomes (Human and CD-1 mouse) were purchased from Corning or XenoTech LLC and stored at −80° C. freezer before use. NADPH cofactor system—β-Nicotinamide adenine dinucleotide phosphate reduced form, tetrasodium salt, NADPH·4Na(NADPH) (Vendor: Chem-impex international, Cat.No. 00616) was used. Control compounds were Testosterone, Diclofenac, Propafenone.
(§3) Stock solution—Test compound was 10 mM in DMSO (Dimethyl Sulfoxide).
(§4) Working solution—Dilute 5 μL of compound or control from stock solution (10 mM) with 495 μL 100% Acetonitrile (Conc.: 100 μM, 99% ACN, 1% DMSO; final concentration in reaction system: 1 μM, 0.99% ACN, 0.01% DMSO).
(§5) Potassium Phosphate Buffer 100 mM (pH 7.4±0.1)
(§6) NADPH Cofactor: The appropriate amount of NADPH powder was weighed, and diluted into MgCl2 solution (work solution concentration: 10 mM NADPH and 10 mM MgCl2; final concentration in reaction system: 1 mM NADPH and 1 mM MgCl2).
(§7) Liver microsome preparation (0.5 mg/mL): Pipette appropriate volume of microsome (20 mg/mL) to 100 mM buffer solution (Conc.: 0.56 mg/mL, Final concentration in reaction system: 0.5 mg/mL).
(§8) Automatic Workstation was used for all liquid handling and incubation.

[5] = in vitro microsome metabolic stability, mouse (MLM); format: in vitro ADME; details: pooled CD-1 mouse liver microsomes, pH 7.4; CD-1 mouse liver microsomes 0.5 mg/mL, 1 μM compound, NADPH, 37° C.; read-out: MLM (T1/2, min)
Procedure: as §1, §2, §3, §4, §5, §6, §7, §8

[6] = Caco-2 permeability test; format: in vitro ADME; details: human, pH 7.4, Caco-2, 2.0 μM, A to B and B to A, pH 7.40, read-out: Caco summary: ER (efflux ratio)
Procedure: (§10) Caco-2 Cells (obtained from ATCC) were seeded onto PET membranes of 96-well Insert Plates and cultured for 21-28 days before being used in the transport assays. The integrity of the monolayer was verified by performing Lucifer yellow rejection assay. The quality of the monolayer was verified by measuring the unidirectional (A to B) permeability of nadolol (low permeability marker), metoprolol (high permeability marker) and bi-directional permeability of digoxin (a P-glycoprotein substrate marker) in duplicate wells. Nadolol and metoprolol were tested at 2.0 μM, and digoxin was tested at 10.0 μM. […]
(§11) Dosing solutions were removed and mixed with transport buffer and Stop Solution containing an appropriate internal standard (IS) as T0 samples. […] All samples including T0 samples, donor samples and receiver samples were analyzed using LC/MS/MS. Concentrations of test compounds were expressed as peak area ratio of analytes to IS without a standard curve.
(§12) The A to B and B to A apparent permeability coefficients (Papp), % Solution Recovery, and Efflux ratio (ER) were determined.

[7] = tested on: Caco-2 Cells; experiment: Caco-2 permeability test; format: in vitro ADME; details: Caco-2, 2.0 μM, 2 hours, pH 7.40
Procedure: as §10, §11, §12

[8] = molecular target: T2, CYP 1A2 (Homo sapiens, UniProt P05177); experiment: microsomal CYP inhibition, 1A2; format: in vitro ADME; details: human liver microsomes 0.2 mg/ml, substrate Phenacetin
T2 construct: pooled human liver microsomes (Corning, Xenotech, or other qualified vendors; pooled from multiple donors); tissue Corning, Xenotech, or other qualified vendors; host or cells: pooled human liver microsomes
T2 sequence (P05177 1-516): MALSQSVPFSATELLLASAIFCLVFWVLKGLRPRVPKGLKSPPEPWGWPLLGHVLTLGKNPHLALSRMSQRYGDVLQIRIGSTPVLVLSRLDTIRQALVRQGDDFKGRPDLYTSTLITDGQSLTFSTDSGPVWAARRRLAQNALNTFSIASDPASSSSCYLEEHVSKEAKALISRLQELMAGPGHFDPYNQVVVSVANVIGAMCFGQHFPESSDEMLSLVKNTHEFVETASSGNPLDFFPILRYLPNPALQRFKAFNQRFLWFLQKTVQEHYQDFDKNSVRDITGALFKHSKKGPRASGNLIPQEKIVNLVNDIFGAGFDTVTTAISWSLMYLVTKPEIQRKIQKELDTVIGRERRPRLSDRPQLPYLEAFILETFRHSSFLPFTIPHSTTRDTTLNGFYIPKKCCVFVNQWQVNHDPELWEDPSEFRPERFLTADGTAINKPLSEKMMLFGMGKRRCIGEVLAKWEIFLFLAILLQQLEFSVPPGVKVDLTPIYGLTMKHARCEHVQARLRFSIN
Procedure: (§9) CYP450 enzymatic activities was determined using 5in1 marker substrate cocktail. For each reaction, enzyme activities in the presence of the test compound at 8 concentrations (0, 0.05, 0.15, 0.5, 1.5, 5.0, 15.0, or 50.0 μM) were measured in singlet (n=1). A known inhibitor for each isoform, tested at a single concentration (3.0 μM) in duplicate (n=2), was included as positive control. Incubation mixture containing pooled human liver microsomes (Corning, Xenotech, or other qualified vendors; pooled from multiple donors) at 0.2 mg/ml, marker substrates and standard inhibitors (listed in the following table) or the test compound was warm up at 37° C. for 10 minutes. The reactions were initiated by the addition of the NADPH (1.0 mM). […] After the mixture was incubated at 37° C. for 10 minutes, ice cold acetonitrile containing the internal standard (IS) was added to terminate the reactions. The metabolites generated from the marker substrates were measured by LC-MS/MS and were assessed based on peak area ratios of the analyte to IS. The remaining activity (expressed as % of control activity) were calculated; IC50 values of the test compound were determined using SigmaPlot or XLfit with 3- or 4-parameter logistic sigmoidal equation.

[9] = molecular target: T3, CYP 2C9 (Homo sapiens, UniProt P11712); experiment: microsomal CYP inhibition, 2C9; format: in vitro ADME; details: human liver microsomes 0.2 mg/ml, substrate Diclofenac
T3 construct: pooled human liver microsomes (Corning, Xenotech, or other qualified vendors; pooled from multiple donors); tissue Corning, Xenotech, or other qualified vendors; host or cells: pooled human liver microsomes
T3 sequence (P11712 whole entry): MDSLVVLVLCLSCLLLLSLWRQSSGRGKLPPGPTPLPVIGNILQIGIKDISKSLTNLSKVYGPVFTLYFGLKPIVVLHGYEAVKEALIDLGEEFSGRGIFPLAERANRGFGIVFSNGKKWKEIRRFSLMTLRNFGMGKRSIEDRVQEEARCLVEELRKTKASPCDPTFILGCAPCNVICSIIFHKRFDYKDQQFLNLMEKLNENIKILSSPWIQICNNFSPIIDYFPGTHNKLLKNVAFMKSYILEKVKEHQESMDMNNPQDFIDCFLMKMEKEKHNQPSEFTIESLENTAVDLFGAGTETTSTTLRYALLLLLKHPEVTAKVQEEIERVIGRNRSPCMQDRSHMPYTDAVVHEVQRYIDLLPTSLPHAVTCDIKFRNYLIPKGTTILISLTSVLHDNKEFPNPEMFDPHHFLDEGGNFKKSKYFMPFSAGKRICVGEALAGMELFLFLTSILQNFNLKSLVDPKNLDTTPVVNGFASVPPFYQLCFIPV
Procedure: as §9

[10] = molecular target: T4, CYP 2C19 (Homo sapiens, UniProt P33261); experiment: microsomal CYP inhibition, 2C19; format: in vitro ADME; details: human liver microsomes 0.2 mg/ml, substrate S-Mephenytoin
T4 construct: pooled human liver microsomes (Corning, Xenotech, or other qualified vendors; pooled from multiple donors); tissue Corning, Xenotech, or other qualified vendors; host or cells: pooled human liver microsomes
T4 sequence (P33261 whole entry): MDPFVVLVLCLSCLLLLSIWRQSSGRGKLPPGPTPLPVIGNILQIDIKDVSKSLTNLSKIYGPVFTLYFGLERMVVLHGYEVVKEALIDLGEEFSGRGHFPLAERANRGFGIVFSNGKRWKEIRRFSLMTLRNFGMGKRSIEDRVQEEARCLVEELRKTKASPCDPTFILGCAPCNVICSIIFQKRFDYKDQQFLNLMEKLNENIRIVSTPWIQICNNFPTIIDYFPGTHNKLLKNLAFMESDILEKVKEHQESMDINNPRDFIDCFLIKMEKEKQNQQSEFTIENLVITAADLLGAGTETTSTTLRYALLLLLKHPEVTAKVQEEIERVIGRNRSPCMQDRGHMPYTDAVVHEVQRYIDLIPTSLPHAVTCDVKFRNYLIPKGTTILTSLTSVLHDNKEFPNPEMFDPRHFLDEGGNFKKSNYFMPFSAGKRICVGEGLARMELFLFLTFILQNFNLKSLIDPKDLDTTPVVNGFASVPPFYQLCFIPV
Procedure: as §9

[11] = molecular target: T5, CYP 2D6 (Homo sapiens, UniProt P10635); experiment: microsomal CYP inhibition, 2D6; format: in vitro ADME; details: human liver microsomes 0.2 mg/ml, substrate Dextromethorphan
T5 construct: pooled human liver microsomes (Corning, Xenotech, or other qualified vendors; pooled from multiple donors); tissue Corning, Xenotech, or other qualified vendors; host or cells: pooled human liver microsomes
T5 sequence (P10635 whole entry): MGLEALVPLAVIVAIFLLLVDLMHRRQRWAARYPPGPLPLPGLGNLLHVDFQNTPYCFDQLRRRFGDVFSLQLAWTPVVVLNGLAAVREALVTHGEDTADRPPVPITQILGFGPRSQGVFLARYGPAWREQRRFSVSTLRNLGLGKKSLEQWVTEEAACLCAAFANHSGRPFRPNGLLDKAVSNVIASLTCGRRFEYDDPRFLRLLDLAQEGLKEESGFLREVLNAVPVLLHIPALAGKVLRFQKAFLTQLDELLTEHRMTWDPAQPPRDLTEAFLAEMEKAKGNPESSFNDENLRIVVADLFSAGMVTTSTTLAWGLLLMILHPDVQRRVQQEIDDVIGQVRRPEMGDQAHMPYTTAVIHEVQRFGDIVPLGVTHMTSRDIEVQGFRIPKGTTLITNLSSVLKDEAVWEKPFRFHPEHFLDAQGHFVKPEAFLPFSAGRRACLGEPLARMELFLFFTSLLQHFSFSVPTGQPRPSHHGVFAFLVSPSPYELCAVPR
Procedure: as §9

[12] = molecular target: T6, CYP 3A4 (Homo sapiens, UniProt P08684); experiment: microsomal CYP inhibition, 3A4; format: in vitro ADME; details: human liver microsomes 0.2 mg/ml, substrate Midazolam; read-out: CYP inhibition (μM) 3A4 (3A4M)
T6 construct: pooled human liver microsomes (Corning, Xenotech, or other qualified vendors; pooled from multiple donors); tissue Corning, Xenotech, or other qualified vendors; host or cells: pooled human liver microsomes
T6 sequence (P08684 whole entry): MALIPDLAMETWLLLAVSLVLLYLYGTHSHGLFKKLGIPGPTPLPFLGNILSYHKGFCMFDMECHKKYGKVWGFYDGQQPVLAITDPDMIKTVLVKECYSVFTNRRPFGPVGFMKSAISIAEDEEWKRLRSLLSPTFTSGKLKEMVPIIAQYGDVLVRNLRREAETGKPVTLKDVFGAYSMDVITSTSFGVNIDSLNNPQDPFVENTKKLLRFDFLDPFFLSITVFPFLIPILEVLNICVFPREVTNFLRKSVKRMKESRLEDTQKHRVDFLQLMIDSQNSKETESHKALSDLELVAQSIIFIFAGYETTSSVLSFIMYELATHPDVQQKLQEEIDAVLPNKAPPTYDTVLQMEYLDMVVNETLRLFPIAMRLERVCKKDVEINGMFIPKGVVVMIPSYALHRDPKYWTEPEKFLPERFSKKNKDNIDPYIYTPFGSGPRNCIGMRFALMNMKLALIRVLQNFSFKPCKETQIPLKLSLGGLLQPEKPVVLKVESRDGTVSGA
Procedure: as §9

Row | IC50 [1] [µM] | solubility kinetic [2] [µM] | half-life at 1 μM [4] [min] | half-life at 1 μM [5] [min] | efflux ratio at 2 h, 2 μM [6] | Caco summary: permeability (high/low) [7] | IC50 [8] [µM] | IC50 [9] [µM] | IC50 [10] [µM] | IC50 [11] [µM] | IC50 [12] [µM] | Compound | IC50 [3] [µM]
1 | < 0.0025 | 169 (≈ 82.6 µg/mL) | – | – | – | – | – | – | – | – | – | COCC[S@@+]([O-])c1sc2nc(-c3cnc4nn(C)cc4c3)c(C#N)c(-c3ccccc3)c2c1N [Compound 9, (R)-3-amino-2-((2-methoxyethyl)sulfinyl)-6-(2-methyl-2H-pyrazolo[3,4-b]pyridin-5-yl)-4-phenylthieno[2,3-b]pyridine-5-carbonitrile] | 13
2 | < 0.0025 | 188 (≈ 83.6 µg/mL) | 100 | 86 | 1 | high | > 50 | 4 | 1 | 29 | 39 | COCC[S@@+]([O-])c1sc2nc(-c3cnc4nn(C)nc4c3)cc(C(C)(C)C)c2c1N [Compound 29, 4-tert-butyl-2-[(R)-2-methoxyethanesulfinyl]-6-{2-methyl-2H-[1,2,3]triazolo[4,5-b]pyridin-6-yl}thieno[2,3-b]pyridin-3-amine] | 11
